Consider 15 compounds from US11524966B1 (Valo Early Discovery, Inc., priority 2017, dated 2022).

The target in the experiment is T1, USP28 (His-tagged USP28-FL-mammalian) (Homo sapiens, UniProt Q96RU2).
T1 construct: Expression of USP28 (1-1077)-TEV-6*His (pTT5 vector); made in house; host or cells: Expi293f cells (pTT5 vector)
T1 sequence (Q96RU2 1-1077): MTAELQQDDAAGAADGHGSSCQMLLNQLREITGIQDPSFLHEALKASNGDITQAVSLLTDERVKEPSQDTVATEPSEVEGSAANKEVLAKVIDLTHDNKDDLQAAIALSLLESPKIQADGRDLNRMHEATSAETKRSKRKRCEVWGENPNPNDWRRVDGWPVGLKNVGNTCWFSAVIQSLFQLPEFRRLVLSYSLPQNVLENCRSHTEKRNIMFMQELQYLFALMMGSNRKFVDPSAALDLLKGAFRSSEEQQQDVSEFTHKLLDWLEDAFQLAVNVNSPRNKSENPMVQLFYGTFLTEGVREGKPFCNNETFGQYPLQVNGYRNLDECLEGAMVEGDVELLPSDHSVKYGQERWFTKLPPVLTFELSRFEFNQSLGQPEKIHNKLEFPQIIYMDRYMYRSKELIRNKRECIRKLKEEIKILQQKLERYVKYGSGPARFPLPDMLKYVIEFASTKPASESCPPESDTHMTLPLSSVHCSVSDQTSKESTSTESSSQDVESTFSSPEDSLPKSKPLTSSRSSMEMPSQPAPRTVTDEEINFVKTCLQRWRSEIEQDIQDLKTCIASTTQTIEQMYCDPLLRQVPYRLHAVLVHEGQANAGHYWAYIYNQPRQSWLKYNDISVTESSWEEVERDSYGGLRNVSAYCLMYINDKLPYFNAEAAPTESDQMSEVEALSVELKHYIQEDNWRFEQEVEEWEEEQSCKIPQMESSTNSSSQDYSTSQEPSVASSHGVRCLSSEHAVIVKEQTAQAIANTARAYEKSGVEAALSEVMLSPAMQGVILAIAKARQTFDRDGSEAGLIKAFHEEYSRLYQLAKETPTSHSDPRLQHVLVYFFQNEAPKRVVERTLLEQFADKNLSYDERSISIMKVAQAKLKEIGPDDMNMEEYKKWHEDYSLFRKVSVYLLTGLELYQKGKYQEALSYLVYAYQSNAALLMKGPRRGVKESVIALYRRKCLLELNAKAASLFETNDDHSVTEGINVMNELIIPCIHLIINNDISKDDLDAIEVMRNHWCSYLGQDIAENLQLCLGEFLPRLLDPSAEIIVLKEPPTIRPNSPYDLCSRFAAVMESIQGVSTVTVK
The experiment in a line: Ubiquitin-Rhodamine 110 Assay for USP28 Activity, Example A-1(a). The format is biochemical. The conditions noted are these: Ubiquitin-Rhodamine 110 assay, Example A-1(a); read-out: USP28 A-1(a) IC50 range. As for the experimental part: Example A-1(a): Biochemical Assay: Ubiquitin-Rhodamine 110 Assay for USP28 Activity
The assay was performed in a final volume of 9 μL in assay buffer containing 20 mM Tris-HCl (pH 8.0, (1M Tris-HCl, pH 8.0 solution; Corning 46-031-CM)), 3 mM BME (2-Mercaptoethanol; Sigma 63689-25ML-F), 0.03% BGG (0.22 μM filtered, Sigma, G7516-25G), and 0.01% Triton X-100 (Sigma, T9284-10L). Nanoliter quantities of 10-point, 3-fold serial dilution in DMSO was pre-dispensed into 1536 assay plates (Corning, #3724BC) for a final test concentration of 25 μM to 1.3 nM, top to lowest dose, respectively. Enzyme USP28, construct His-tagged USP28-FL-mammalian, (protein expression and purification procedure described below). Concentration and incubation times were optimized for the maximal signal-to-background while maintaining initial velocity conditions at a fixed substrate concentration. The final concentration of the enzyme in the assay was 75 μM. Final substrate (Ub-Rh110; Ubiquitin-Rhodamine 110, UbiQ-126) concentration was 25 nM with [Ub-Rh110]<<Km. 3 μL of 2× enzyme was added to assay plates (pre-stamped with compound) preincubated with […] for 30 minutes and then 3 μL of 2×Ub-Rh110 was added to assay plates. Plates were incubated for 45 minutes at room temperature before addition of 3 μL of stop solution (final concentration of 10 mM citric acid (Sigma, 251275-500G)). Fluorescence was read on the Envision (Excitation at 485 nm and Emission at 535 nm; Perkin Elmer) or on the PheraSTAR (Excitation at 485 nm and Emission at 535 nm; BMG Labtech).
Procedure for the Protein Expression and Purification for Construct His-Tagged USP28-FL-Mammalian
Expression of USP28 (1-1077)-TEV-6*His (pTT5 vector) was carried out in Expi293f cells (sequence derived from uniprot ID: Q96RU2-1). Cells were re-suspended in lysis buffer B 50 mM Bicine, pH 8.0, 20 mM NaCl, 5% glycerol, 0.1% CHAPS, 5 mM β-ME, 1 mM PMSF, 1 ug/ml Leupeptin, 1 ug/ml Pepstatin) and lysed by sonication. Insoluble material was removed by centrifugation and the supernatant was loaded onto a Ni-NTA column (GE Healthcare) equilibrated with Ni Buffer A (50 mM Bicine, pH 8.0, 20 mM NaCl, 5% glycerol, 0.1% CHAPS, 5 mM β-ME.) and washed with Ni Buffer A+20 mM imidazole until A280 reached baseline. The protein was eluted with Ni Buffer B (50 mM Bicine, pH 8.0, 20 mM NaCl, 5% glycerol, 0.1% CHAPS, 5 mM β-ME, 300 mM imidazole.). The protein was further purified using a Superdex™ 200 10/300 GL column (GE Healthcare) equilibrated with 50 mM Bicine, pH 8.0, 20 mM NaCl, 5% glycerol, 0.1% CHAPS, 5 mM β-ME. The protein was concentrated to 2.5 mg ml^−1, flash-frozen in liquid N2 and stored at −80° C.
For assay formats Example A-1(a), A-1(b), and A-2, data were reported as percent inhibition compared with control wells based on the following equation: % inh=1−((FLU−AveLow)/(AveHigh−AveLow)) where FLU=measured Fluorescence, AveLow=average Fluorescence of no enzyme control (n=16), and AveHigh=average Fluorescence of DMSO control (n=16). IC50 values were determined by curve fitting of the standard 4 parameter logistic fitting algorithm included in the Activity Base software package: IDBS XE Designer Model 205. Data is fitted using the Levenburg Marquardt algorithm.

Regarding `Cc1ccc2c(N)c(C(=O)N[C@H]3CCc4nc(N5C[C@H](C(F)F)[C@@H](N)C5)ncc4C3)sc2n1` [Example 380, 3-amino-N-[(6S)-2-[(3R,4S)-3-amino-4-(difluoromethyl)pyrrolidin-1-yl]-5,6,7,8-tetrahydroquinazolin-6-yl]-6-methylthieno[2,3-b]pyridine-2-carboxamide], the IC50 – broadly, the concentration needed to halve the response being measured – was 0.05 to 0.2 µM.
The value for `Cc1ccc2c(N)c(C(=O)N[C@H]3CCc4nc(N5C[C@@H](N)[C@H](C(F)F)C5)ncc4C3)sc2n1` [Example 381, 3-amino-N-[(6S)-2-[(3S,4R)-3-amino-4-(difluoromethyl)pyrrolidin-1-yl]-5,6,7,8-tetrahydroquinazolin-6-yl]-6-methylthieno[2,3-b]pyridine-2-carboxamide] was 0.2 to 2 µM; that for `Cc1ccc2c(N)c(C(=O)N[C@@H]3CCc4nc(N5C[C@@H](N)[C@H](C(F)F)C5)ncc4C3)sc2n1` [Example 382, 3-amino-N-[(6R)-2-[(3S,4R)-3-amino-4-(difluoromethyl)pyrrolidin-1-yl]-5,6,7,8-tetrahydroquinazolin-6-yl]-6-methylthieno[2,3-b]pyridine-2-carboxamide] was 0.2 to 2 µM.
In the case of `Cc1ccc2c(N)c(C(=O)N[C@@H]3CCc4nc(N5C[C@H](C(F)F)[C@@H](N)C5)ncc4C3)sc2n1` [Example 383, 3-amino-N-[(6R)-2-[(3R,4S)-3-amino-4-(difluoromethyl)pyrrolidin-1-yl]-5,6,7,8-tetrahydroquinazolin-6-yl]-6-methylthieno[2,3-b]pyridine-2-carboxamide], the IC50 is above 2 µM.
The value for `Cc1ccc2c(N)c(C(=O)N[C@H]3CCc4nc(N5C[C@H](CF)[C@@H](N)C5)ccc4C3)sc2n1` [Example 384, 3-amino-N-[(6S)-2-[(3R,4S)-3-amino-4-(fluoromethyl)pyrrolidin-1-yl]-5,6,7,8-tetrahydroquinolin-6-yl]-6-methylthieno[2,3-b]pyridine-2-carboxamide] was 0.05 to 0.2 µM.
In the case of `Cc1ccc2c(N)c(C(=O)N[C@H]3CCc4nc(N5C[C@@H](CF)[C@H](N)C5)ccc4C3)sc2n1` [Example 385, 3-amino-N-[(6S)-2-[(3S,4R)-3-amino-4-(fluoromethyl)pyrrolidin-1-yl]-5,6,7,8-tetrahydroquinolin-6-yl]-6-methylthieno[2,3-b]pyridine-2-carboxamide] it was 0.05 to 0.2 µM.
The value for `Cc1ccc2c(N)c(C(=O)N[C@H]3CCc4nc(N5CC[C@](N)(CO)C5)ccc4C3)sc2n1` [Example 386, 3-amino-N-[(6S)-2-[(3R)-3-amino-3-(hydroxymethyl)pyrrolidin-1-yl]-5,6,7,8-tetrahydroquinolin-6-yl]-6-methylthieno[2,3-b]pyridine-2-carboxamide] was 0.05 to 0.2 µM.
For the compound `Cc1ccc2c(N)c(C(=O)N[C@H]3CCc4nc(N5CC[C@@](N)(CO)C5)ccc4C3)sc2n1` [Example 387, 3-amino-N-[(6S)-2-[(3S)-3-amino-3-(hydroxymethyl)pyrrolidin-1-yl]-5,6,7,8-tetrahydroquinolin-6-yl]-6-methylthieno[2,3-b]pyridine-2-carboxamide], the half-maximal inhibitory concentration (IC50) lay in the range of 0.05 to 0.2 µM.
In the case of `COC[C@@]1(N)CCN(c2ccc3c(n2)CC[C@H](NC(=O)c2sc4nc(C)ccc4c2N)C3)C1` [Example 388, 3-amino-N-[(6S)-2-[(3R)-3-amino-3-(methoxymethyl)pyrrolidin-1-yl]-5,6,7,8-tetrahydroquinolin-6-yl]-6-methylthieno[2,3-b]pyridine-2-carboxamide] it was 0.05 to 0.2 µM.
In the case of `COC[C@]1(N)CCN(c2ccc3c(n2)CC[C@H](NC(=O)c2sc4nc(C)ccc4c2N)C3)C1` [Example 389, 3-amino-N-[(6S)-2-[(3S)-3-amino-3-(methoxymethyl)pyrrolidin-1-yl]-5,6,7,8-tetrahydroquinolin-6-yl]-6-methylthieno[2,3-b]pyridine-2-carboxamide] it was 0.05 to 0.2 µM; in that of `Cc1ccc2c(N)c(C(=O)N[C@H]3CCc4nc(N5C[C@@H]6COC[C@]6(N)C5)ccc4C3)sc2n1` [Example 394, N-[(6S)-2-[(3aR,6aS)-3a-amino-hexahydro-1H-furo[3,4-c]pyrrol-5-yl]-5,6,7,8-tetrahydroquinolin-6-yl]-3-amino-6-methylthieno[2,3-b]pyridine-2-carboxamide], 0.05 to 0.2 µM.
Regarding `Cc1ccc2c(N)c(C(=O)N[C@H]3CCc4nc(N5C[C@H]6COC[C@@]6(N)C5)ccc4C3)sc2n1` [Example 395, N-[(6S)-2-[(3aS,6aR)-3a-amino-hexahydro-1H-furo[3,4-c]pyrrol-5-yl]-5,6,7,8-tetrahydroquinolin-6-yl]-3-amino-6-methylthieno[2,3-b]pyridine-2-carboxamide], the half-maximal inhibitory concentration (IC50) was in the range of 0.05 to 0.2 µM.
The value for `Cc1ccc2c(N)c(C(=O)N[C@H]3CCc4nc(N5C[C@H]6COC[C@@H](C5)[C@H]6N)ccc4C3)sc2n1` [Example 396, 3-amino-6-methyl-N-[(6S)-2-[(1R,5S,9r)-9-amino-3-oxa-7-azabicyclo[3.3.1]nonan-7-yl]-5,6,7,8-tetrahydroquinolin-6-yl]thieno[2,3-b]pyridine-2-carboxamide] was 0.05 to 0.2 µM; that for `Cc1ccc2c(N)c(C(=O)N[C@H]3CCc4nc(N5C[C@H]6COC[C@@H](C5)[C@@H]6N)ccc4C3)sc2n1` [Example 397, 3-amino-6-methyl-N-[(6S)-2-[(1R,5S,9s)-9-amino-3-oxa-7-azabicyclo[3.3.1]nonan-7-yl]-5,6,7,8-tetrahydroquinolin-6-yl]thieno[2,3-b]pyridine-2-carboxamide] was 0.05 to 0.2 µM.
In the case of `Cc1ccc2c(N)c(C(=O)N[C@H]3CCc4nc(N5CC6(C[C@@H](N)CO6)C5)ccc4C3)sc2n1` [Example 398, 3-amino-N-[(6S)-2-[(7R)-7-amino-5-oxa-2-azaspiro[3.4]octan-2-yl]-5,6,7,8-tetrahydroquinolin-6-yl]-6-methylthieno[2,3-b]pyridine-2-carboxamide] it was 0.05 to 0.2 µM.
